Measurements reported in ChEMBL document CHEMBL5029145, “Discovery of AZD8154, a Dual PI3Kγδ Inhibitor for the Treatment of Asthma” (J Med Chem, 2021).
≈ marks a conversion by molar mass, not a printed value. Calls of active or inactive are those of the source. The rule behind the calls is not given here.

Experiments:
[1] = Clearance in rat at 0.5 mg/kg, iv; type: ADME, organism-based; conditions: in vivo
[2] = molecular target: T1, Phosphatidylinositol 4,5-bisphosphate 3-kinase catalytic subunit delta isoform (Homo sapiens, UniProt O00329); assay: Inhibition of recombinant human PI3Kdelta assessed as reduction in ADP production using Dic8-PIP2 as substrate pre-treated for 15 mins followed by substrate addition measured after 60 mins by ADP-glo assay
T1 sequence (O00329 whole entry): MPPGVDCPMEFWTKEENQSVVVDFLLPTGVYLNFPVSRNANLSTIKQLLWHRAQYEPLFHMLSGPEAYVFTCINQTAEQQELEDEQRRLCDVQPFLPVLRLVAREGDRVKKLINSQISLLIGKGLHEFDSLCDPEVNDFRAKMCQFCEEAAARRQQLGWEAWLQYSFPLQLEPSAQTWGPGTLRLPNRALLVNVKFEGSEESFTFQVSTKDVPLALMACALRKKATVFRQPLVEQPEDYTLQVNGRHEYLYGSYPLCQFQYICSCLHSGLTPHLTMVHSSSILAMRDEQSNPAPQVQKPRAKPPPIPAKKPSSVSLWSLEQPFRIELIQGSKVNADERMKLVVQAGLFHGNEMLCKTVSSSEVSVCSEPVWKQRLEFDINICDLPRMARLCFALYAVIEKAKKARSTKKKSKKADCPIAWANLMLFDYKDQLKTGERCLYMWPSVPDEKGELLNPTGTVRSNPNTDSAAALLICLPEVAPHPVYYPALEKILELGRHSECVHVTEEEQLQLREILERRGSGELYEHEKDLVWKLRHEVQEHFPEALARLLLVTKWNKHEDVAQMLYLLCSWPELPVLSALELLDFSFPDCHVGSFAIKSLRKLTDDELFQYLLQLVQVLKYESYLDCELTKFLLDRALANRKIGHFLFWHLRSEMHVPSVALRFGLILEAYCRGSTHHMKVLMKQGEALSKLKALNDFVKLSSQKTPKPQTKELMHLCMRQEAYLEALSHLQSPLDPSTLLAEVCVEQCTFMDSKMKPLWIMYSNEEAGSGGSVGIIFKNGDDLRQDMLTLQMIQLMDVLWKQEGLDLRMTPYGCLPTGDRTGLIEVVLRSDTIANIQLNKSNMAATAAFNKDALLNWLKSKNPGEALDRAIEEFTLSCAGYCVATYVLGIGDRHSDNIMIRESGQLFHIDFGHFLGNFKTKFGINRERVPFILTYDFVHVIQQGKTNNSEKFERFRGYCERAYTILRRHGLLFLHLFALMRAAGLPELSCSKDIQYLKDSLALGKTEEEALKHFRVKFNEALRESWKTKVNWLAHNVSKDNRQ

[3] = tested on: Rattus norvegicus; assay: Antiinflammatory activity in ovalbumin induced Brown Norway rat assessed as reduction in eosinophil counts in lung lavage fluid at 240 microg/kg administered using nebulizer for 12 hrs prior to ovalbumin challenge measured after 48 hrs by flow cytometry; type: functional, organism-based; conditions: dose 240.0 µg/kg, time 60.0 hrs
[4] = Solubility of compound in at pH 7.4 at 1 mg/ml using crystalline form of sample incubated for 24 hrs by HPLC MS analysis; type: physicochemical
[5] = Apparent terminal half life in rat administered via inhalation; type: ADME; conditions: in vivo, inhaled or intranasal
[6] = molecular target: Phosphatidylinositol 4-phosphate 3-kinase C2 domain-containing subunit alpha (Homo sapiens, UniProt O00443); assay: Inhibition of PIK3C2A (unknown origin) assessed as reduction in substrate phosphorylation by FRET Adapta assay
[7] = molecular target: T2, Phosphatidylinositol 4,5-bisphosphate 3-kinase catalytic subunit delta isoform/gamma isoform (Homo sapiens) (UniProt P48736+O00329); assay: Inhibition of PI3kgamma/delta in eotaxin-3-stimulated human eosinophils derived from asthmatic patient assessed as reduction in CD11b expression pre-incubated for 30 mins followed by eotaxin-3 stimulation for 30 mins by flow cytometry; type: tissue-based; conditions: Eosinophil, time 60.0 min
T2 sequence (P48736 whole entry, looked up, one chain of several, canonical isoform): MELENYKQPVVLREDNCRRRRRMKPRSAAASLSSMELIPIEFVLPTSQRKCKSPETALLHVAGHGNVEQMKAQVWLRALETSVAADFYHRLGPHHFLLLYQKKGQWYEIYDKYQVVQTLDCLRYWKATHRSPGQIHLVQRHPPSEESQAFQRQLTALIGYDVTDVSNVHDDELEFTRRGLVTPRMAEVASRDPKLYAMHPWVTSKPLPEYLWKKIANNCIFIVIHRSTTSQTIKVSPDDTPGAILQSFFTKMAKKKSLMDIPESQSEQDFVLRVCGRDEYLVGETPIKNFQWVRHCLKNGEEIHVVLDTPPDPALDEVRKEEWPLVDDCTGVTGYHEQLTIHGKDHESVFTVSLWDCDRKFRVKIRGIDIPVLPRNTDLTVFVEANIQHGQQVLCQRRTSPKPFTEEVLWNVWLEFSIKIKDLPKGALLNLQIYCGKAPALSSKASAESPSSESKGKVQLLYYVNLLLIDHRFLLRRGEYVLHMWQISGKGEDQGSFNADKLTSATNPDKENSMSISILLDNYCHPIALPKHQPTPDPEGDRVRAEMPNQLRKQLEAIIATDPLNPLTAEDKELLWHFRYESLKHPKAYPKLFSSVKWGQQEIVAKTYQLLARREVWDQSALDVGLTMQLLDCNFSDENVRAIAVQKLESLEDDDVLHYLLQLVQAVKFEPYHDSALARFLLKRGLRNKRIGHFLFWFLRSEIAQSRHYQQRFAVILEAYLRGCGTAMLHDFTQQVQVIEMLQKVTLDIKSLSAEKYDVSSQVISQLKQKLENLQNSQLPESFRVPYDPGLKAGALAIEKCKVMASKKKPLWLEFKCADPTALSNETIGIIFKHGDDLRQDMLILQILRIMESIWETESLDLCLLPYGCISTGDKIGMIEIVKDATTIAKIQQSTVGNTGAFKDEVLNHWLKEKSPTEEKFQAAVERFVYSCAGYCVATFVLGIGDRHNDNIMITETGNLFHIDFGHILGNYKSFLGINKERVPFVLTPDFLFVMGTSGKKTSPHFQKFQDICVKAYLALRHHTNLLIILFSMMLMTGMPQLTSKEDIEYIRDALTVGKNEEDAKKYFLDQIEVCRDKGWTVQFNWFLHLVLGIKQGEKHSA

[8] = molecular target: Phosphatidylinositol 4-kinase beta (Homo sapiens, UniProt Q9UBF8); assay: Inhibition of PI4KB (unknown origin) assessed as reduction in substrate phosphorylation by FRET Adapta assay
Sequence of Phosphatidylinositol 4-kinase beta (Q9UBF8 whole entry): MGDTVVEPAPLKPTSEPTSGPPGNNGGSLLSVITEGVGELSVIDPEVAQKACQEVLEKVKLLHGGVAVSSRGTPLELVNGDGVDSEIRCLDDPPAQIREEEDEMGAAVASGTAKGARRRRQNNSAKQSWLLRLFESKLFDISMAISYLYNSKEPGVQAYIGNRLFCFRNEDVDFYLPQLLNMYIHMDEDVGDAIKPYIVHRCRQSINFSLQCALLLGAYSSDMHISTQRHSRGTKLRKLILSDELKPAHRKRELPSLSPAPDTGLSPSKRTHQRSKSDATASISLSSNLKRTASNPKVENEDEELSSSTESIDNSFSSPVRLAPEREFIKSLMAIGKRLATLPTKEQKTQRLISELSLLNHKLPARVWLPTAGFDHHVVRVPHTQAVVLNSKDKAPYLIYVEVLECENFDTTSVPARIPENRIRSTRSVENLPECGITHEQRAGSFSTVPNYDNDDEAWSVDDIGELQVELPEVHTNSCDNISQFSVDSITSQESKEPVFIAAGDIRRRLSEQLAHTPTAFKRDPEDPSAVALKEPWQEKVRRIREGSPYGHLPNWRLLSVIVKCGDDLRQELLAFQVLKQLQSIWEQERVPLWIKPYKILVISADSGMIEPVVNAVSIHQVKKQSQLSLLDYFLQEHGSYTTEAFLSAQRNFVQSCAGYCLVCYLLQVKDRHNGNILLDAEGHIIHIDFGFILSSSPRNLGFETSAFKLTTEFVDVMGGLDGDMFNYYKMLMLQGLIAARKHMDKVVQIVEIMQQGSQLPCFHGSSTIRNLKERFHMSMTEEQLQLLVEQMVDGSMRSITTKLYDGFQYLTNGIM

[9] = Half life in rat plasma at 0.5 mg/kg, iv; type: ADME, organism-based
[10] = molecular target: Phosphatidylinositol 4,5-bisphosphate 3-kinase catalytic subunit alpha isoform (Homo sapiens, UniProt P42336); assay: Inhibition of recombinant human PI3Kalpha assessed as reduction in ADP production using Dic8-PIP2 as substrate pre-treated for 15 mins followed by substrate addition measured after 60 mins by ADP-glo assay
[11] = molecular target: T1, Phosphatidylinositol 4,5-bisphosphate 3-kinase catalytic subunit delta isoform; assay: Inhibition of PI3Kdelta in anti-IgM-stimulated human JeKo-1 cells assessed as inhibition of AKT phosphorylation at Ser473 residue incubated for 60 mins by TR-FRET assay
[12] = Oral bioavailability in rat at 1.0 mg/kg; type: ADME, organism-based; conditions: in vivo
[13] = molecular target: Phosphatidylinositol 3-kinase catalytic subunit type 3 (Homo sapiens, UniProt Q8NEB9); assay: Inhibition of PIK3C3 (unknown origin) assessed as reduction in substrate phosphorylation by FRET Adapta assay
Sequence of Phosphatidylinositol 3-kinase catalytic subunit type 3 (Q8NEB9 whole entry): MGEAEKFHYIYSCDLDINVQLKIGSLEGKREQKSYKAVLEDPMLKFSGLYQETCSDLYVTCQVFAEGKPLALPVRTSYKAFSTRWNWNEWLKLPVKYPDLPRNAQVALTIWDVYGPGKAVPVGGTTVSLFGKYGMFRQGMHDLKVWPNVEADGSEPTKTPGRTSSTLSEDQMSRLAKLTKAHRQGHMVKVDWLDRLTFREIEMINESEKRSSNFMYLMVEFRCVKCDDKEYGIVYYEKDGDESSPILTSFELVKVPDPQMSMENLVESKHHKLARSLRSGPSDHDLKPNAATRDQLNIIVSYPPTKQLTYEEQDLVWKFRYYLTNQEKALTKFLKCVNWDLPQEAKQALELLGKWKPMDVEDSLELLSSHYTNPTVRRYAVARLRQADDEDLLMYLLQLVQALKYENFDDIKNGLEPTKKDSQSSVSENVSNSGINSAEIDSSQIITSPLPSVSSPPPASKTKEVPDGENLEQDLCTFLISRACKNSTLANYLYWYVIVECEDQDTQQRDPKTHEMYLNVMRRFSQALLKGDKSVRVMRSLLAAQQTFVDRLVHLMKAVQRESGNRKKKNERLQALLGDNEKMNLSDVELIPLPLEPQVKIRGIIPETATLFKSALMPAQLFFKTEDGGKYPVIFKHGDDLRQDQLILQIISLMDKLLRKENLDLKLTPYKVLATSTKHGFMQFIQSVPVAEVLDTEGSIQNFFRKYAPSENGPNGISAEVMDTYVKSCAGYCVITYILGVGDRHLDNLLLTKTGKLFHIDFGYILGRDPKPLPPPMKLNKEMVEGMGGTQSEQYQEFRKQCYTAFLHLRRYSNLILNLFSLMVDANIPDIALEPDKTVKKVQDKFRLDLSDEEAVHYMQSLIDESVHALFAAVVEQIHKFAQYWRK

[14] = tested on: Rattus norvegicus; assay: Antiinflammatory activity in ovalbumin induced Brown Norway rat assessed as reduction in eosinophil counts in lung lavage fluid at 240 microg/kg administered using nebulizer for 24 hrs prior to ovalbumin challenge measured after 48 hrs by flow cytometry; type: functional, organism-based; conditions: dose 240.0 µg/kg, time 72.0 hrs
[15] = molecular target: Phosphatidylinositol 4-phosphate 3-kinase C2 domain-containing subunit beta (Homo sapiens, UniProt O00750); assay: Inhibition of PIK3C2B (unknown origin) assessed as reduction in substrate phosphorylation by FRET Adapta assay
[16] = molecular target: T2, Phosphatidylinositol 4,5-bisphosphate 3-kinase catalytic subunit delta isoform/gamma isoform (Homo sapiens); assay: Inhibition of PI3kgamma/delta in anti-CD2/3/28-stimulated human PBMC cells derived from asthmatic patient assessed as reduction in IL-17 release pre-incubated for 1 hr followed by anti-CD2/3/28 stimulation measured after 24 hrs by flow cytometry; type: cell-based; conditions: time 25.0 hrs
[17] = Volume of distribution at steady state in rat at 0.5 mg/kg, iv; type: ADME, organism-based; conditions: in vivo, read-out: Vdss
[18] = molecular target: Phosphatidylinositol 4-kinase alpha (Homo sapiens, UniProt P42356); assay: Inhibition of PI4KA (unknown origin) assessed as reduction in substrate phosphorylation by FRET Adapta assay
Sequence of Phosphatidylinositol 4-kinase alpha (P42356 whole entry, canonical isoform): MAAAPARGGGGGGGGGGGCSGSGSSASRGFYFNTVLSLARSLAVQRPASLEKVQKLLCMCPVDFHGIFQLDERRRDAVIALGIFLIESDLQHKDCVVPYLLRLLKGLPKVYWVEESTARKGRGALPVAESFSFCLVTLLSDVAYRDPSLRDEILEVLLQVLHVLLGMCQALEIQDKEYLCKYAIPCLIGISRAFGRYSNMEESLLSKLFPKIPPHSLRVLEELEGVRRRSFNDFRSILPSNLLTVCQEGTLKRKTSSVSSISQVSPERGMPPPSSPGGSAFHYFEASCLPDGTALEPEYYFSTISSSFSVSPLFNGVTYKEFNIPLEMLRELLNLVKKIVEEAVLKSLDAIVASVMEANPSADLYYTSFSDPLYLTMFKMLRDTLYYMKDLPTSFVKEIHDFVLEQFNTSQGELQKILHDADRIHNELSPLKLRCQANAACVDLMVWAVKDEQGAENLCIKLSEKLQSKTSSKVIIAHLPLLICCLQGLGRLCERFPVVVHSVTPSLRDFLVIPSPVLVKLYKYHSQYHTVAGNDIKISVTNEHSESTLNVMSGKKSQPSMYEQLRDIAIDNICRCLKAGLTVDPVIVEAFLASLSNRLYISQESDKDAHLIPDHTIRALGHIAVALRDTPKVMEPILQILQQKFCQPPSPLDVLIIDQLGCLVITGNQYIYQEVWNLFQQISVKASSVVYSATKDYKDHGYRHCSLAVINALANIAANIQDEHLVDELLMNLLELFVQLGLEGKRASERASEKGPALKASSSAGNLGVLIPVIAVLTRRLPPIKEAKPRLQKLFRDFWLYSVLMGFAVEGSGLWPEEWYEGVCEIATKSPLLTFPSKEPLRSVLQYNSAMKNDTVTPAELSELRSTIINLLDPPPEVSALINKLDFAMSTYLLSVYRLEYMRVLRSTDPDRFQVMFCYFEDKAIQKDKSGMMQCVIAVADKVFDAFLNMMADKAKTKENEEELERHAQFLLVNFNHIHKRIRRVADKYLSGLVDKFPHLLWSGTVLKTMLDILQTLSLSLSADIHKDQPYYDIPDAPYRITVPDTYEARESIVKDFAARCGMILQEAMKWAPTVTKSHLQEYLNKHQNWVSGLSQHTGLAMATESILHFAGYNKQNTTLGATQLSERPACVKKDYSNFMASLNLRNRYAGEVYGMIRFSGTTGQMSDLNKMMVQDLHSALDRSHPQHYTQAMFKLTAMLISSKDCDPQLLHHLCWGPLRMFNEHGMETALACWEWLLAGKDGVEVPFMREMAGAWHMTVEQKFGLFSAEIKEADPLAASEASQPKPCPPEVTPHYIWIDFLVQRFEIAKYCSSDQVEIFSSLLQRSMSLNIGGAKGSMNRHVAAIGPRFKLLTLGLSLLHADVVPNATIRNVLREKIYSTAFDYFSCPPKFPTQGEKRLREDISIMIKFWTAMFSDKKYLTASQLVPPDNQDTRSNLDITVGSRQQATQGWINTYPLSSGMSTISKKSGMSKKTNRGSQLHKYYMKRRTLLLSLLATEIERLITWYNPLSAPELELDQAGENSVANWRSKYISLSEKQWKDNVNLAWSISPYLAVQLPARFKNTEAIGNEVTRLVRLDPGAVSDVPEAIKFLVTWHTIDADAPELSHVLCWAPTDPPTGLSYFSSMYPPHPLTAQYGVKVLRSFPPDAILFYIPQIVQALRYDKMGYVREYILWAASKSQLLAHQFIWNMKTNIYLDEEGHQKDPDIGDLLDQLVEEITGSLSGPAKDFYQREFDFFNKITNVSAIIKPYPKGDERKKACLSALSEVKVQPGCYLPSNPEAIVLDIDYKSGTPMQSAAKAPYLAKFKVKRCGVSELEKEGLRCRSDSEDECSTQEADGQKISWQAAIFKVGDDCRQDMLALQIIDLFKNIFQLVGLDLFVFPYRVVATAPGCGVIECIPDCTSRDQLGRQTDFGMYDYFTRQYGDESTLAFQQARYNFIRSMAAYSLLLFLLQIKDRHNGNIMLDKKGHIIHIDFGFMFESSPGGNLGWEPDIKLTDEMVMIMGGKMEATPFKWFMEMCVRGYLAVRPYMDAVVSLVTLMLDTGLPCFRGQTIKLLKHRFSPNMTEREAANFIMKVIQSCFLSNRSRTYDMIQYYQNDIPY

[19] = molecular target: T2, Phosphatidylinositol 4,5-bisphosphate 3-kinase catalytic subunit delta isoform/gamma isoform (Homo sapiens); assay: Inhibition of PI3kgamma/delta in anti-CD2/3/28-stimulated human PBMC cells derived from asthmatic patient assessed as reduction in IL-5 release pre-incubated for 1 hr followed by anti-CD2/3/28 stimulation measured after 24 hrs by flow cytometry; type: cell-based; conditions: time 25.0 hrs

With `Cc1nc(Nc2cccc(N3CCCC3=O)n2)sc1-c1cc2c(c(S(C)(=O)=O)c1)C(=O)N([C@@H](C)C1CC1)C2` [AZD-8154] the clearance [1] was 20 mL/min/kg, the IC50 [2] was 0.631 nM and the Activity [3] was “inactive”. For the same compound, the solubility thermodynamic at 24 h [4] was 0.054 µM (≈ 0.0298 µg/mL), the half-life [5] was 7.1 h and the IC50 [6] was 3980 nM. The Activity [7] was “Active”, the IC50 [8] was 3160 nM and the half-life [9] was 2.9 h. The IC50 [10] was 63.1 nM, the IC50 [11] was 3.98 nM and the bioavailability [12] was < 4%. For the same compound, the IC50 [13] was 501 nM, the Activity [14] was “inactive” and the IC50 [15] was 3.16 nM. For the same compound, the Activity [16] was “Active”, the Vd [17] was 4 L/kg and the IC50 [18] was > 10000 nM. For the same compound, the Activity [19] was “Active”.
